# Measured values as given in patent US20240398831A1, “COMPOSITIONS COMPRISING SMALL MOLECULE REGULATORS OF TUMOR IMMUNITY AND METHODS OF USING SAME” (Duke University, priority 2021, published 2024).
# Key:
# [1] = tested on: B16F10 tumors; test: B16F10 tumor growth in ovariectomized NSG mice; type: in vivo, mouse
# Method: Tumor formation in these mice were induced with a single intradermal dose of 150 μg of 4-hydroxytamoxifen (4OHT). […] FIGS. 6A-6B and FIGS. 6E-6F are representative of two independent experiments. Data are expressed as mean t S.E.M. Significance was calculated using the Student's t test (FIG. 6C and FIG. 6H), log-rank test (FIG. 6D and FIG. 6G), and two-way ANOVA followed by Bonferroni's multiple correction (FIGS. 6A-6B, FIGS. 6E-6F, and FIG. 6I) (*p<0.05, *p<0.01, and ***<0.001).
# Mice. C57BL/BJ, LysMCre (B6.129P2-Lyz2^tm1(cre)lfo/J) Pmel (B6.Cg-Thy1^a/Cy Tg(TcraTcrb)8Rest/J) mice were from Jackson Laboratories (Bar Harbor, ME). Age matched mice were used for all the studies. LysMCre mice were bred to Esr1^f/f mice to generate Esr1^f/f; LysMCre and littermate control LysMCre and Esr1^f/f mice. iBP (Braf^V600E/WT, Pten^f/fmTyrCreERT2) mice were generated by crossing breeders Braf^WT/WT/Pten^f/f, mTyrCreERT2 mice to BRAF^V600E, Pten^f/f mice. The mice were housed in secure animal facility cages in 12 hour light:dark cycles at temperature around 25° C. and 70% humidity. […]
# Tumor models and cells. […] Tumors were measured thrice weekly using an electronic caliper. Tumor volumes were calculated by the formula V=L×(W×W)/2. For iBP mouse tumors, volumes were calculated by the formula V=L×B×H. For tumor growth rate studies mice were euthanized when the tumors reached a maximum size of 2000 mm^3.
# [2] = tested on: B16F10 cells; test: Quantitative PCR of ER target genes in melanoma cells; type: cell-based, mouse; conditions: E2 1 nM, 16 hr
# [3] = tested on: B16F10 cells; test: Proliferation assay; type: cell-based, mouse; conditions: E2 0.01-1 nM, 3 days
# Method: ERα+ MCF7 cells served as a positive control. Cells were treated as either mock transfected or transfected with scrambled control or three different siRNA targeting Esr1. […] Esr1 was first normalized to Rplp0 and then Esr1 knockdown samples were normalized to a non-targeting control. RNA was collected from both cell lines after 48 hr of siRNA transfection. […] Mouse ovary served as a positive control. […] ERα+MCF7 cells served as a positive control (FIG. 5E, left). […] Data are expressed as individual data points and represented as mean±S.E.M. Significance was calculated by Student's t test or two-way ANOVA (FIGS. 5E-5F), followed by Bonferroni's multiple correction (**p<0.0001).
# Proliferation assay. For proliferation assays, B16F10 cells were plated in DMEM media (without phenol red) supplemented with 10% charcoal-stripped FBS. Cells were plated at a concentration of 1000 cells/well of a 96-well plate for 2 days in 200 μL of media. […] Cells were collected every 24 hr by discarding the media from the plates. Plates were frozen at −80° C. […] Cell numbers were determined by the addition of 100 μL of (conc.) DNA dye […] dye (Sigma Cat #94403) in TNE buffer (10 mM Tris, 2M NaCl and 1 mM EDTA) and the fluorescence was read at an excitation of 360 nm and an emission at 465 nm using a microplate reader.
# [4] = tested on: iBP tumors; test: iBP autochthonous melanoma mouse model (tumor growth, flow cytometry); type: in vivo; conditions: E2 vs placebo
# From the text: Mice. C57BL/BJ, LysMCre (B6.129P2-Lyz2^tm1(cre)lfo/J) Pmel (B6.Cg-Thy1^a/Cy Tg(TcraTcrb)8Rest/J) mice were from Jackson Laboratories (Bar Harbor, ME). Age matched mice were used for all the studies. LysMCre mice were bred to Esr1^f/f mice to generate Esr1^f/f; LysMCre and littermate control LysMCre and Esr1^f/f mice. iBP (Braf^V600E/WT, Pten^f/fmTyrCreERT2) mice were generated by crossing breeders Braf^WT/WT/Pten^f/f, mTyrCreERT2 mice to BRAF^V600E, Pten^f/f mice. The mice were housed in secure animal facility cages in 12 hour light:dark cycles at temperature around 25° C. and 70% humidity. Mice had access to ad-libitum food and water. NSG (NOD.Cg-Prkd^scid Il2rg^tm1Wjl/SzJ) mice were from the Division of Laboratory Animal Resources (Duke University). The NSG animals were fed with a GL3 diet and were kept in pathogen free conditions.
# Tumor models and cells. The mouse B16F10 and Yumm5.2 cell lines were purchased from American Type Culture Collection (ATCC, Manassas, VA). The mouse melanoma cell line BPD6 was established from iBP as described elsewhere (Zhao et al., Immunity 2018, 48, 147-160). B16F10 and BPD6 cells were maintained in Dulbecco's Modified Eagle's Medium (DMEM) supplemented with 8% fetal bovine serum (FBS), 0.1 mM non-essential amino acids (NEAA) and 1 mM sodium pyruvate. YuMM5.2 cells were maintained in DMEM/F12 media supplemented with 10% FBS. The cells were replated 3 times/week at a confluency of 1:10 and were kept in a 37° C. incubator at 5% CO2. For subcutaneous tumor models B16F10 (5×10^4 or 1×10^5), YuMM5.2 (5×10^5), and BPD6 (5×10^5) cells were injected into the right flank of the mice. For iBP mice, tumors were induced with a single intradermal dose of 4-hydroxytamoxifen in DMSO (150 μg/mouse). Tumors were measured thrice weekly using an electronic caliper. Tumor volumes were calculated by the formula V=L×(W×W)/2. For iBP mouse tumors, volumes were calculated by the formula V=L×B×H. For tumor growth rate studies mice were euthanized when the tumors reached a maximum size of 2000 mm^3.
# Ovarlectomy and subcutaneous pellet Insertion. Ovariectomy was performed as previously described (Nelson et al., Science 2013, 342, 1094-1098). Eight days prior to tumor inoculation, 7 weeks old C57BL/6J or 5 weeks old (iBP) female mice were subjected to ovariectomy or sham surgery. Mice were anesthetized in an inhalation chamber (2% Isoflurane) and maintained in half the dose of isoflurane (1%) via nose cone throughout the surgical process. Prior to surgery, mice were administered a 5 mg/kg dose of carprofen subcutaneously. The area below the ribs was shaved with an electronic razor and the skin was sterilized by rubbing with betadine and alcohol (3× alternating). A horizontal incision was made through the skin above the ovary fat pad, followed by a vertical incision through the abdominal muscle wall. The ovary was externalized and removed using a cauterizing scissors (or returned if sham). Fat pad was replaced, and muscle walls were opposed and sutured (1-2 stitches). Following suturing, 1 drop of bupivacaine (0.25%) was added on top of the incision site. The skin was opposed, and a wound clip was placed on the incision site. This was repeated for the other ovary. The mouse was then removed from anesthesia and kept in a clean cage and monitored until conscious. The mice were monitored for recovery for 10 days.
# Single cell isolation from tumors. Tumors were isolated, minced on a petri dish in media (DMEM+5% FBS), and then enzymatically digested by the addition of 100 μg/mL DNase I (D5025-150KU, Sigma-Aldrich) and 1 mg/mL collagenase (Collagenase A, Cat #10103586001, Sigma-Aldrich) for 30 mins-45 mins. For iBP models, isolated tumors were sliced into large chunks and subjected to mechanical digestion in a gentleMACS Dissociator for 30 seconds twice. […]
substance,measurement,setting,value
17β-estradiol [E2],slower tumor growth kinetics imparted by ovariectomy (placebo vs E2),[1],disappeared
same,expression of classical ER target genes (Pgr and Cxc112),[2],did not lead to changes
same,proliferation,[3],nor did it support proliferation
same,tumor growth,[4]; ovariectomized iBP mice,accelerated tumor growth
same,"CD3+ T cell population, tumor-infiltrating",[4]; flow cytometry,overall decrease
same,infiltration of immune cells (CD45+),[4]; flow cytometry,not impacted by treatment
same,number of monocytes,[4]; flow cytometry,trend was observed towards an increase
same,ratio of intratumoral M1 (MHCII^hi CD206−) to M2 (MHCII^lo CD206+/hi) macrophages,[4]; flow cytometry,decreases
same,total number of F480+ macrophages,[4]; flow cytometry,remaining unchanged
same,"CD4+ T cells, tumor-infiltrating","[4]; flow cytometry, FIGS. 16B-16C show B16F10 and YuMM5.2",no significant changes
